In PMC8571316 (Scientific Reports, 2021):
Peptide text beside a SMILES is read from it. * marks the point of attachment. Biotin = O=C1N[C@H]2[C@H](CS[C@H]2CCCCC(=O)*)N1; PEG4 = NCCOCCOCCOCCOCCC(=O)O

Tested on: Influenza HA
Type: binding

SMILES | cross-reactivity (selectivity of binding, in words)
CC(C)C[C@H](NC(=O)[C@H](CC(=O)O)NC(=O)[C@H](CCC(=O)O)NC(=O)[C@H](Cc1c[nH]c2ccccc12)NC(=O)[C@H](CCC(=O)O)NC(=O)[C@H](CC(C)C)NC(=O)[C@H](CC(N)=O)NC(=O)[C@H](Cc1ccccc1)NC(=O)[C@@H](NC(=O)[C@H](Cc1ccccc1)NC(=O)[C@H](CC(C)C)NC(=O)[C@H](Cc1ccccc1)NC(=O)[C@H](CC(C)C)NC(=O)[C@@H](NC(=O)[C@H](Cc1c[nH]c2ccccc12)NC(=O)[C@H](CC(=O)O)NC(=O)CCOCCOCCOCCOCCNC(=O)CCCC[C@@H]1SC[C@@H]2NC(=O)N[C@@H]21)[C@@H](C)O)C(C)C)C(=O)N[C@@H](Cc1ccccc1)C(=O)N[C@@H](Cc1ccc(O)cc1)C(=O)O [Peptide P89] ({Biotin-PEG4}-DWTLFLFVFNLEWEDLFY-OH; C-terminus assumed) | some level of cross-reactivity
CC[C@H](C)[C@H](NC(=O)[C@H](CCC(=O)O)NC(=O)[C@H](Cc1ccc(O)cc1)NC(=O)[C@H](Cc1ccc(O)cc1)NC(=O)[C@H](CCSC)NC(=O)[C@H](Cc1c[nH]cn1)NC(=O)[C@H](CCSC)NC(=O)[C@H](Cc1c[nH]c2ccccc12)NC(=O)[C@H](CCCCN)NC(=O)[C@H](CC(=O)O)NC(=O)[C@H](Cc1c[nH]c2ccccc12)NC(=O)[C@H](CCC(=O)O)NC(=O)[C@@H](NC(=O)[C@H](CCCCN)NC(=O)CCOCCOCCOCCOCCNC(=O)CCCC[C@@H]1SC[C@@H]2NC(=O)N[C@@H]21)[C@@H](C)O)C(=O)N[C@@H](Cc1ccccc1)C(=O)N[C@@H](Cc1ccc(O)cc1)C(=O)N[C@@H](CCC(=O)O)C(=O)N[C@@H](CC(=O)O)C(=O)O [Peptide P100] ({Biotin-PEG4}-KTEWDKWMHMYYEIFYED-OH; C-terminus assumed) | some level of cross-reactivity
CC[C@H](C)[C@H](NC(=O)[C@H](CC(=O)O)NC(=O)[C@H](Cc1ccccc1)NC(=O)[C@H](CC(N)=O)NC(=O)CCOCCOCCOCCOCCNC(=O)CCCC[C@@H]1SC[C@@H]2NC(=O)N[C@@H]21)C(=O)N[C@@H](CC(C)C)C(=O)N[C@@H](CC(C)C)C(=O)N[C@@H](Cc1ccccc1)C(=O)N[C@H](C(=O)N[C@@H](Cc1ccccc1)C(=O)N[C@@H](CC(N)=O)C(=O)N[C@@H](Cc1ccc(O)cc1)C(=O)N[C@@H](CCC(=O)O)C(=O)N[C@@H](CCSC)C(=O)N[C@@H](CCC(=O)O)C(=O)N[C@@H](CC(=O)O)C(=O)N[C@@H](CCCCN)C(=O)N[C@@H](Cc1ccccc1)C(=O)N[C@@H](Cc1ccc(O)cc1)C(=O)O)C(C)C [Peptide P168] ({Biotin-PEG4}-NFDILLFVFNYEMEDKFY-OH; C-terminus assumed) | some level of cross-reactivity
CC[C@H](C)[C@H](NC(=O)[C@@H](NC(=O)[C@H](Cc1ccc(O)cc1)NC(=O)[C@H](Cc1ccccc1)NC(=O)[C@H](Cc1ccc(O)cc1)NC(=O)[C@@H](NC(=O)[C@H](CCC(=O)O)NC(=O)[C@H](CCSC)NC(=O)[C@H](Cc1c[nH]c2ccccc12)NC(=O)[C@H](Cc1c[nH]cn1)NC(=O)[C@H](CO)NC(=O)[C@H](Cc1ccccc1)NC(=O)[C@H](CCSC)NC(=O)[C@H](CC(=O)O)NC(=O)[C@H](Cc1c[nH]c2ccccc12)NC(=O)[C@H](CC(=O)O)NC(=O)[C@@H](NC(=O)[C@H](CCCCN)NC(=O)CCOCCOCCOCCOCCNC(=O)CCCC[C@@H]1SC[C@@H]2NC(=O)N[C@@H]21)[C@@H](C)O)[C@@H](C)CC)C(C)C)C(=O)O [Peptide P180] ({Biotin-PEG4}-KTDWDMFSHWMEIYFYVI-OH; C-terminus assumed) | some level of cross-reactivity
